According to ChEMBL document CHEMBL1131972, “Investigation of the 4-O-alkylamine substituent of non-peptide quinolone GnRH receptor antagonists” (Bioorg Med Chem Lett, 1999):

Biological target: T1, Gonadotropin-releasing hormone receptor (Rattus norvegicus, UniProt P30969)
T1 sequence (P30969 whole entry): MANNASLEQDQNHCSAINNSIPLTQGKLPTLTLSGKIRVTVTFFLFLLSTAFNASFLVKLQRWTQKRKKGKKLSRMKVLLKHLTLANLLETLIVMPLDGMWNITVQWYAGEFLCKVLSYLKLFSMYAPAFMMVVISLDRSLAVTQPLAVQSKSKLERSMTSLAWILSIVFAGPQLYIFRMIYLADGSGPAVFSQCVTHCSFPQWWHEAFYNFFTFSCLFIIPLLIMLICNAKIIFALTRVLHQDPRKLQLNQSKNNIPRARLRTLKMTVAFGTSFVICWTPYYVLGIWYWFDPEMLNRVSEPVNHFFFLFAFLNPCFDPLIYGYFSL
Assay: Binding affinity for Gonadotropin-releasing hormone receptor in rat pituitary membrane at 10 buserelin as radioligand; call rule not given here
Type: cell membranes

Structure (SMILES)	IC50 [nM]
Cc1cc(C)cc(-c2c(O)nc3cc(Cl)c([N+](=O)[O-])cc3c2OCC[C@H]2CCCN2)c1	100
Cc1cc(C)cc(-c2c(O)nc3cc(Cl)c([N+](=O)[O-])cc3c2OCC[C@@H]2CCCCN2C)c1	20
Cc1cc(C)cc(-c2c(O)nc3cc(Cl)c([N+](=O)[O-])cc3c2OCC[C@@H]2CCCN2)c1	15
Cc1cc(C)cc(-c2c(O)nc3cc(Cl)c([N+](=O)[O-])cc3c2OCC[C@H]2CCCCN2C)c1	85
Cc1cc(C)cc(-c2c(O)nc3cc(Cl)c([N+](=O)[O-])cc3c2OCCCC2CCCCN2)c1 (stereo unspecified)	1420
Cc1cc(C)cc(-c2c(O)nc3cc(Cl)c([N+](=O)[O-])cc3c2OCC[C@@H]2CCN2)c1	25
Cc1cc(C)cc(-c2c(OCC3CCCNC3)c3cc([N+](=O)[O-])c(Cl)cc3[nH]c2=O)c1 (stereo unspecified)	36

Second part, the molecule after the results:

IC50 [nM]	Structure (SMILES)
10	Cc1cc(C)cc(-c2c(O)nc3cc(Cl)c([N+](=O)[O-])cc3c2OCC[C@@H]2CCCCN2)c1
36	Cc1cc(C)cc(-c2c(OCCC3CCCCCN3)c3cc([N+](=O)[O-])c(Cl)cc3[nH]c2=O)c1 (stereo unspecified)
150	Cc1cc(C)cc(-c2c(O)nc3cc(Cl)c([N+](=O)[O-])cc3c2OCC[C@H]2CCCCN2)c1

Biological target: T1, Gonadotropin-releasing hormone receptor
Assay: Binding affinity for Gonadotropin-releasing hormone receptor in rat pituitary membrane at 10 buserelin as radioligand; NA is not active
Type: cell membranes

Structure (SMILES)	IC50
Cc1cc(C)cc(-c2c(O)nc3cc(Cl)c([N+](=O)[O-])cc3c2OCCc2ccccn2)c1	Not Active
